US11752180B2, “Intestinal protectant” (National University Corporation Asahikawa Medical University, priority 2010, dated 2023)
Where no end group is shown, it is not given here.

System: integrin (integrin β)
Experiment: Interaction between polyphosphoric acid and integrin: mannitol ex vivo loop assay with peptide antagonist of integrin
Set-up: species or system mouse
Procedure: Using a peptide antagonist of integrin, the interaction between polyphosphoric acid and integrin was analyzed. For the peptide antagonist of integrin, the peptide having the amino acid sequence of Gly-Arg-Gly-Asp-Thr-Pro (GRGDTP) (hereinafter also referred to as “GRGDTP”) was used. GRGDTP has the sequence of Arg-Gly-Asp (RGD), which is recognized by integrin β.
The intestinal tract permeability experiment on mannitol by ex vivo loop assay was carried out in the same manner as in Example 9 and Example 11 except that GRGDTP was added in a concentration of 100 μg/ml, in addition to the enzymatically synthesized polyphosphoric acid or the chemically synthesized polyphosphoric acid, to the PBS solution to be filled in the intestinal tract, and the intestinal tract barrier function was evaluated.

GRGDTP [peptide antagonist of integrin] was tested. Which “effect of GRGDTP on the intestinal tract barrier effect of chemically synthesized polyphosphoric acid (mannitol leakage)” value (GRGDTP 100 μg/ml in combination with chemically synthesized polyphosphoric acid) did it give?
The value was “had the same result”.

And the “effect of GRGDTP on the intestinal tract barrier effect of enzymatically synthesized polyphosphoric acid (mannitol leakage)” value (GRGDTP 100 μg/ml in combination with enzymatically synthesized polyphosphoric acid)?
The value was “remarkably inhibited”.
